From patent US20250064867A1, “METHOD FOR PREVENTING OR TREATING MUSCLE DISEASE” (KOREA RESEARCH INSTITUTE OF BIOSCIENCE AND BIOTECHNOLOGY, priority 2018, published 2025)

System: C2C12 myoblasts
Assay: WST-1 cytotoxicity assay on C2C12
Format: cell-based, mouse
Settings: 24 hours
Description: First, mouse skeletal muscle C2C12 cell line (CRL-1772, ATCC, Manassas, VA, USA) was purchased and used. To assess the cytotoxicity of dexamethasone and HB05P on C2C12, a WST-1 assay (Cell Proliferation Reagent WST-1, 5015944001, Roche, Basel, Switzerland) was performed. Myoblasts (C2C12) were dispensed at a density of 2.0×10^4 cells/well into 96-well plates (Corning® 96-well Clear Polystyrene Microplates, 3598, Corning, Glendale, AZ, USA) and cultured at 37° C. in 5% CO2 conditions for 24 hours. The cultured cells were then treated with varying concentrations of dexamethasone (0, 250, 500, 750, 1000 μM) and HB05P (0, 1.0×10^3, 1.0×10^4, 1.0×10^5, 1.0×10^6, 1.0×10^7 cells/well). After 24 hours of incubation, cell viability was measured using a VersaMax Microplate Reader (Molecular devices, San Jose, CA, USA).

With `C[C@@H]1C[C@H]2[C@@H]3CCC4=CC(=O)C=C[C@]4(C)[C@@]3(F)[C@@H](O)C[C@]2(C)[C@@]1(O)C(=O)CO` [dexamethasone] the “cell viability, trend over concentration” value (0, 250, 500, 750, 1000 μM) was “concentration-dependent decrease” and the cell viability (250 μM, untreated = 100%) was 66.6%.
